System: patients with PH post-LVAD implantation
Test: Phase 2 study in PH post-LVAD implantation: adverse events (Safety Set)
Assay type: in vivo
Description: This is a double-blind, placebo-controlled, multicenter, parallel-group Phase 2 study assessing the efficacy and safety of macitentan in PH post-LVAD implantation. Approximately 57 adult patients with PH post-LVAD implantation were randomized (1:1) to receive either macitentan 10 mg, or matching placebo, once daily orally.
• Treatment-emergent AEs up to 30 days after treatment discontinuation. • AEs leading to premature discontinuation of treatment. • Death up to 30 days after treatment discontinuation. • Treatment-emergent SAEs up to 30 days after treatment discontinuation. • Change from Baseline to EOT in vital signs. • Occurrence of liver function test (ALT and/or AST) abnormality (≥3×ULN; ≥3 and <5×ULN; ≥5 and <8×ULN; ≥8×ULN) up to EOT. • Occurrence of ALT and/or AST abnormality ≥3×ULN associated with bilirubin ≥2×ULN up to EOT. • Proportion of patients with treatment-emergent hemoglobin abnormality (<10.0 g/dL, and <8.0 g/dL) as compared to Baseline up to EOT. • Treatment-emergent marked laboratory abnormalities up to EOT.
An AE is any adverse change, i.e., any unfavorable and unintended sign, including an abnormal laboratory finding, symptom, or disease that occurs in a patient. AEs include: • Exacerbation of a pre-existing disease. • Increase in frequency or intensity of a pre-existing episodic disease or medical condition. • Disease or medical condition detected or diagnosed even though it may have been present prior to the start of the treatment. • Continuous persistent disease or symptoms present at treatment start that worsen following the start. • Abnormal assessments, e.g., change on physical examination, ECG findings, if they represent a clinically significant finding that was not present at treatment start or worsened during the course of the treatment. • Laboratory test abnormalities if they represent a clinically significant finding, symptomatic or not, which was not present at treatment start or worsened during the course of the treatment or led to dose reduction, interruption or permanent discontinuation of treatment.
A treatment-emergent AE is any AE temporally associated with the use of treatment (from treatment initiation until 30 days after treatment discontinuation). Overdose, misuse, and abuse of the treatment may be considered an AE.
The intensity of clinical AEs is graded on a three-point scale-mild, moderate, severe. The three categories of intensity are defined as follows: • Mild: The event may be noticeable to the patient. […] Performance of daily activities may be influenced, and intervention may be needed. • Severe: The event may cause noticeable discomfort, and usually interferes with daily activities. The patient may not be able to continue, and treatment or intervention is usually needed.
An SAE is defined by the ICH guidelines as any AE fulfilling at least one of the following criteria: • Fatal. • Life-threatening: refers to an event in which the patient was at risk of death at the time of the event.
Safety Set (SS): The SS includes all patients receiving at least one dose of drug in the treatment period.
A treatment-emergent AE is any AE temporally associated with the use of a treatment. The number and percentage of patients experiencing treatment-emergent AEs and SAEs at least once are tabulated by treatment group and by: • MedDRA SOC and individual preferred term within each SOC, in descending order of incidence. • Frequency of patients with events coded with the same preferred term, in descending order of incidence.

[1] = AEs leading to treatment discontinuation, SS, N = 28
[2] = SMQs for anemia, hypotension, edema/fluid retention, 10 mg once daily, N = 28
[3] = frequently reported AEs, SS, N = 28
[4] = treatment-emergent, 10 mg once daily, N = 28

CCCNS(=O)(=O)Nc1ncnc(OCCOc2ncc(Br)cn2)c1-c1ccc(Br)cc1 [Macitentan, propylsulfamic acid [5-(4-bromo-phenyl)-6-[2-(5-bromo-pyrimidin-2-yloxy)-ethoxy]-pyrimidin-4-yl]-amide]
2: Any Treatment-Related Adverse Event Leading to Treatment Discontinuation, number of patients (10 mg once daily, N = 28) | Vomiting, number of patients [3] | Acute kidney injury, number of patients (serious AEs, N = 28) | Pleural effusion, number of patients (serious AEs, N = 28) | Right ventricular failure, number of patients (serious AEs, N = 28) | Septic shock, number of patients (serious AEs, N = 28) | Any Severe Treatment-Related Adverse Event, number of patients [4] | Any Treatment-Related Serious Adverse Event, number of patients [4]
(92.9) %: Any Adverse Event, percent of patients [4]
9: Any Severe Adverse Event, number of patients [4]
well tolerated: tolerability in words (early post-LVAD population, 10 mg once daily)
(7.1) %: Any Treatment-Related Adverse Event Leading to Treatment Discontinuation, percent of patients (10 mg once daily, N = 28) | Vomiting, percent of patients [3] | Acute kidney injury, percent of patients (serious AEs, N = 28) | Pleural effusion, percent of patients (serious AEs, N = 28) | Right ventricular failure, percent of patients (serious AEs, N = 28) | Septic shock, percent of patients (serious AEs, N = 28) | Any Severe Treatment-Related Adverse Event, percent of patients [4] | Any Treatment-Related Serious Adverse Event, percent of patients [4]
(10.7) %: Acute kidney injury, percent of patients [3] | Cystatin C increased, percent of patients [3] | Hyperkalaemia, percent of patients [3] | Hypotension, percent of patients [3] | Anticoagulation drug level below therapeutic level, percent of patients (serious AEs, N = 28)
10: Any Events of Interest, number of patients [2]
1: Acute kidney injury, number of patients [1] | Blood alkaline phosphatase increased, number of patients [1] | Blood bilirubin increased, number of patients [1] | Cardiac disorders, number of patients [1] | Cerebral haemorrhage, number of patients [1] | General disorders and administration site conditions, number of patients [1] | International normalised ratio increased, number of patients [1] | Investigations, number of patients [1] | Liver function test increased, number of patients [1] | Nervous system disorders, number of patients [1] | Oedema peripheral, number of patients [1] | Renal and urinary disorders, number of patients [1] | Right ventricular failure, number of patients [1] | Ventricular tachycardia, number of patients [3] | Any Adverse Event With Outcome of Death, number of patients [4]
(3.6) %: Ventricular tachycardia, percent of patients [3] | Any Adverse Event With Outcome of Death, percent of patients [4]
3: Acute kidney injury, number of patients [3] | Cystatin C increased, number of patients [3] | Hyperkalaemia, number of patients [3] | Hypotension, number of patients [3] | Anticoagulation drug level below therapeutic level, number of patients (serious AEs, N = 28)
favorable safety profile: safety profile in words (post-LVAD implantation patients, 10 mg once daily)
0: Anaemia, number of patients [1] | Blood and lymphatic system disorders, number of patients [1] | Haemolysis, number of patients [1] | Haemorrhagic stroke, number of patients [1] | Complication associated with device, number of patients [3] | Dehydration, number of patients [3] | Fall, number of patients [3] | Complication associated with device, number of patients (serious AEs, N = 28) | Dehydration, number of patients (serious AEs, N = 28) | Gastrointestinal hemorrhage, number of patients (serious AEs, N = 28) | Ventricular tachycardia, number of patients (serious AEs, N = 28)
26: Any Adverse Event, number of patients [4]
(35.7) %: Any Events of Interest, percent of patients [2]
16: Any Serious Adverse Event, number of patients [4]
(32.1) %: Any Severe Adverse Event, percent of patients [4]
(21.4) %: Any Treatment-Related Adverse Event, percent of patients [4]
(57.1) %: Any Serious Adverse Event, percent of patients [4]
4: Any Adverse Event Leading to Treatment Discontinuation, number of patients (SS, 10 mg once daily, N = 28) | Anticoagulation drug level below therapeutic, number of patients [3] | Dizziness, number of patients [3] | Dyspnoea, number of patients [3] | Fatigue, number of patients [3] | N-terminal prohormone brain natriuretic peptide increased, number of patients [3] | Oedema peripheral, number of patients [3]
6: Any Treatment-Related Adverse Event, number of patients [4]
3.6%: Acute kidney injury, percent of patients [1] | Blood alkaline phosphatase increased, percent of patients [1] | Blood bilirubin increased, percent of patients [1] | Cardiac disorders, percent of patients [1] | Cerebral haemorrhage, percent of patients [1] | General disorders and administration site conditions, percent of patients [1] | International normalised ratio increased, percent of patients [1] | Investigations, percent of patients [1] | Liver function test increased, percent of patients [1] | Nervous system disorders, percent of patients [1] | Oedema peripheral, percent of patients [1] | Renal and urinary disorders, percent of patients [1] | Right ventricular failure, percent of patients [1]
(14.3) %: Anticoagulation drug level below therapeutic, percent of patients [3] | Dizziness, percent of patients [3] | Dyspnoea, percent of patients [3] | Fatigue, percent of patients [3] | N-terminal prohormone brain natriuretic peptide increased, percent of patients [3] | Oedema peripheral, percent of patients [3]
